These are literature values, as cited in patent publication US20100056547A1, “OPHTHALMIC COMPOSITIONS COMPRISING dDC” (ALLERGAN, INC., priority 2005, published 2010).

The test system of one data set is adenoviral strains. The settings on record: for inhibition of adenoviral strains: Kaneko et al., J. Jpn. Ophthalmol. Soc. 107:196-201 (2003).
For the next data set, the system named is viral conjunctivitis. The settings on record: topical ophthalmic administration; Gordon et al., Cornea 15(5): 546, 1996.

In the case of `Nc1ccn(C[C@@H](CO)OCP(=O)(O)O)c(=O)n1` [HPMPC], the “inhibition of adenoviral strains” value in the data set on adenoviral strains is “inhibited adenoviral strains”.

Take `CCCCCCCCCCCCCCCCCCCCCCOCC(C)(COCCCCCCCCCCCCCCCCCCCCCC)CO[C@]1(C(=O)O)C[C@H](OS(=O)(=O)O)[C@@H](NC(C)=O)[C@H]([C@H](OS(=O)(=O)O)[C@@H](COS(=O)(=O)O)OS(=O)(=O)O)O1` [NMSO3]: the “inhibition of adenoviral strains” value in the data set on adenoviral strains was “inhibited adenoviral strains”. In the data set with adenoviral strains (adenoviral strains, Kaneko et al. 2003), the “EC50 values (ranking among NMSO3, HPMPC, dDC)” value was “lowest”.

Consider `Nc1ccn(C[C@@H](CO)OCP(=O)(O)O)c(=O)n1` [cidofavir], for which the “effectiveness in treating viral conjunctivitis” value in the data set with viral conjunctivitis is “effective”.

Turning to `Nc1ccn([C@H]2CC[C@@H](CO)O2)c(=O)n1` [dDC, 2′,3′-Dideoxycytidine], the “inhibition of adenoviral strains” value with adenoviral strains is given as “inhibited adenoviral strains”.
